Experimental data from the NIST ThermoML archive (doi:10.1007/s10765-006-0063-0).

Legend:
[1] = 101.33 kPa, Liquid; for speed of sound: Sing-around technique in a fixed-path interferometer
[2] = xn = mol fraction of the nth substance listed; details: 101 kPa, Liquid, Sing-around technique in a fixed-path interferometer

C1CCCCC1 [cyclohexane]
[1]
Details	mass density [kg/m3]	speed of sound [m/s]
283.15 K	788	1327.8
298.15 K	773.7	1254.4
313.15 K	759.6	1181.1

C1COCCO1 [1,4-dioxane] + C1CCCCC1
[2]
Details	speed of sound [m/s]
283.15 K, x1 = 0.0502	1323.1
283.15 K, x1 = 0.0999	1319.7
283.15 K, x1 = 0.1953	1315.8
283.15 K, x1 = 0.2899	1315.6
283.15 K, x1 = 0.3996	1318.4
283.15 K, x1 = 0.5017	1324.5
283.15 K, x1 = 0.6007	1333.5
283.15 K, x1 = 0.699	1346.1
283.15 K, x1 = 0.7956	1362.2
283.15 K, x1 = 0.8994	1383.9
283.15 K, x1 = 0.9446	1394.9
298.15 K, x1 = 0.0535	1250
298.15 K, x1 = 0.1053	1246.9
298.15 K, x1 = 0.1998	1244.4
298.15 K, x1 = 0.3003	1245
298.15 K, x1 = 0.4026	1248.6
298.15 K, x1 = 0.5006	1255.2
298.15 K, x1 = 0.5971	1264.5
298.15 K, x1 = 0.7028	1278.6
298.15 K, x1 = 0.8089	1296.9
298.15 K, x1 = 0.9038	1318.4
298.15 K, x1 = 0.9485	1330.2
313.15 K, x1 = 0.0497	1177.3
313.15 K, x1 = 0.102	1174.3
313.15 K, x1 = 0.1944	1172.4
313.15 K, x1 = 0.2926	1173.7
313.15 K, x1 = 0.3973	1178.3
313.15 K, x1 = 0.4969	1185.8
313.15 K, x1 = 0.5992	1196.7
313.15 K, x1 = 0.6988	1211
313.15 K, x1 = 0.7966	1229
313.15 K, x1 = 0.8972	1251.3
313.15 K, x1 = 0.9505	1264.9

C1COCCO1 [1,4-dioxane]
[1]
Details	mass density [kg/m3]	speed of sound [m/s]
283.15 K	1045.2	1409.6
298.15 K	1027.9	1343.6
313.15 K	1011	1278.8

C1CCCC1 [cyclopentane] + C1COCO1
[2]
Details	speed of sound [m/s]
283.15 K, x2 = 0.101	1277.3
283.15 K, x2 = 0.2019	1275.8
283.15 K, x2 = 0.3024	1278.6
283.15 K, x2 = 0.4023	1285
283.15 K, x2 = 0.5028	1295.3
283.15 K, x2 = 0.6	1307.9
283.15 K, x2 = 0.6995	1325.7
283.15 K, x2 = 0.796	1347.3
283.15 K, x2 = 0.8999	1375.7
298.15 K, x2 = 0.0998	1201.4
298.15 K, x2 = 0.1993	1200.8
298.15 K, x2 = 0.3005	1204.5
298.15 K, x2 = 0.4041	1212
298.15 K, x2 = 0.5024	1222.7
298.15 K, x2 = 0.6002	1236.4
298.15 K, x2 = 0.7004	1255.5
298.15 K, x2 = 0.7988	1278.8
298.15 K, x2 = 0.8992	1307.4
313.15 K, x2 = 0.1028	1125.3
313.15 K, x2 = 0.2032	1125.9
313.15 K, x2 = 0.3014	1130.2
313.15 K, x2 = 0.403	1138.5
313.15 K, x2 = 0.5008	1150
313.15 K, x2 = 0.6008	1165.5
313.15 K, x2 = 0.6991	1184.8
313.15 K, x2 = 0.7991	1209
313.15 K, x2 = 0.8987	1237.8

C1COCO1 [1,3-dioxolane] + C1CCCCC1
[2]
Details	speed of sound [m/s]
283.15 K, x1 = 0.1044	1322
283.15 K, x1 = 0.2011	1317.6
283.15 K, x1 = 0.3005	1315.4
283.15 K, x1 = 0.4009	1316
283.15 K, x1 = 0.4998	1319.7
283.15 K, x1 = 0.602	1327.3
283.15 K, x1 = 0.7002	1339
283.15 K, x1 = 0.7989	1355.7
283.15 K, x1 = 0.8989	1377.7
298.15 K, x1 = 0.0998	1245.1
298.15 K, x1 = 0.2014	1240
298.15 K, x1 = 0.3019	1238.7
298.15 K, x1 = 0.4043	1240.5
298.15 K, x1 = 0.4993	1245.3
298.15 K, x1 = 0.6028	1254.2
298.15 K, x1 = 0.6998	1266.9
298.15 K, x1 = 0.8003	1284.9
298.15 K, x1 = 0.8992	1308.9
313.15 K, x1 = 0.1213	1172.5
313.15 K, x1 = 0.2006	1167.6
313.15 K, x1 = 0.2996	1166.6
313.15 K, x1 = 0.3996	1168.8
313.15 K, x1 = 0.5009	1174.2
313.15 K, x1 = 0.6	1183.2
313.15 K, x1 = 0.6979	1196.3
313.15 K, x1 = 0.7987	1215.2
313.15 K, x1 = 0.8991	1240

c1ccccc1 [benzene]
[1]
Details	mass density [kg/m3]	speed of sound [m/s]
283.15 K	889.9	1368.7
298.15 K	873.5	1298.3
313.15 K	857.5	1229.5
